{
  "source": "patent US20080139614A1",
  "about": "“Treatment Of Stroke With Histamine H3 Inverse Agonists Or Histamine H3 Antagonists” (priority 2004, published 2008)",
  "tested_on": "harmaline-induced tremor",
  "experiment": "harmaline-induced tremor model in rats",
  "format": "in vivo",
  "source_text": "The identification of a compound as a histamine H3 inverse agonist or a histamine H3 antagonist may be readily determined without undue experimentation by methodology well known in the art. The efficacy of a histamine H3 inverse agonist or a histamine H3 antagonist in treating stroke may be readily determined without undue experimentation by methodology well known in the art, for example the harmaline-induced tremor model in rats, Sinton, et al., Pflugers Archive Eur. J. Phys., 414(1) 31-36 (1989). […] The ability of the histamine H3 inverse agonist or histamine H3 antagonist to be used in the present invention to treat stroke may be determined by these methods.",
  "data": [
    {"smiles": "N#Cc1ccc(-c2cnc(OC3CCN(C4CCCC4)CC3)nc2)cc1", "note": "[2-(1-cyclopentylpiperidine-4-yloxy)-5-(4-cyanophenyl)pyrimidine]", "values": [
      {"measurement": "reversal of harmaline-induced tremor", "setting": "dose of 1 mg/kg", "value": 8.4, "unit": "%"},
      {"measurement": "reversal of harmaline-induced tremor", "setting": "dose of 3 mg/kg", "value": 63.3, "unit": "%"},
      {"measurement": "reversal of harmaline-induced tremor", "setting": "dose of 10 mg/kg", "value": 84.4, "unit": "%"}
    ]}
  ]
}
